Data published in ChEMBL document CHEMBL3046598, “In vitro antimicrobial and molecular docking of dichloro substituted benzoxazole derivatives” (2012).
Values after ≈ are worked out from the molar mass of the structure shown.

What was measured:
Format in all cases: functional
[1] = tested on: Escherichia coli; experiment: Antibacterial activity against Escherichia coli NCIM 5051 after 24 hr by agar well diffusion method; settings: NCIM 5051, 24 h
[2] = tested on: Salmonella typhi; experiment: Antibacterial activity against Salmonella enterica subsp. enterica serovar Typhi ATCC 19430 after 24 hr by agar well diffusion method; settings: ATCC 19430, 24 h
[3] = tested on: Staphylococcus aureus; experiment: Antibacterial activity against Staphylococcus aureus NCIM 5022 after 24 hr by agar well diffusion method; settings: NCIM 5022, 24 h
[4] = tested on: Proteus vulgaris; experiment: Antibacterial activity against Proteus vulgaris NCIM 2857 after 24 hr by agar well diffusion method; settings: NCIM 2857, 24 h
[5] = tested on: Bacillus subtilis; experiment: Antibacterial activity against Bacillus subtilis NCIM 2920 after 24 hr by agar well diffusion method; settings: NCIM 2920, 24 h
[6] = tested on: Pseudomonas aeruginosa; experiment: Antibacterial activity against Pseudomonas aeruginosa NCIM 2945 after 24 hr by agar well diffusion method; settings: NCIM 2945, 24 h

SMILES	MIC [1]	MIC [2]	MIC [3]	MIC [4]	MIC [5]	MIC [6]
Sc1nc2cc(Cl)cc(Cl)c2o1	3.12 µg/mL (≈ 14.2 µM)	50 µg/mL (≈ 227 µM)	25 µg/mL (≈ 114 µM)	3.12 µg/mL (≈ 14.2 µM)	6.25 µg/mL (≈ 28.4 µM)	3.12 µg/mL (≈ 14.2 µM)
CCOC(=O)CSc1nc2cc(Cl)cc(Cl)c2o1	6.25 µg/mL (≈ 20.4 µM)		25 µg/mL (≈ 81.7 µM)	6.25 µg/mL (≈ 20.4 µM)	3.12 µg/mL (≈ 10.2 µM)	3.12 µg/mL (≈ 10.2 µM)
NNc1nc2cc(Cl)cc(Cl)c2o1	50 µg/mL (≈ 229 µM)		6.25 µg/mL (≈ 28.7 µM)	3.12 µg/mL (≈ 14.3 µM)	6.25 µg/mL (≈ 28.7 µM)	
S=c1[nH]nc2oc3c(Cl)cc(Cl)cc3n12	3.12 µg/mL (≈ 12 µM)	50 µg/mL (≈ 192 µM)	3.12 µg/mL (≈ 12 µM)	6.25 µg/mL (≈ 24 µM)	3.12 µg/mL (≈ 12 µM)	3.12 µg/mL (≈ 12 µM)
CCOC(=O)CSc1nnc2oc3c(Cl)cc(Cl)cc3n12	3.12 µg/mL (≈ 9.03 µM)	50 µg/mL (≈ 144 µM)	6.25 µg/mL (≈ 18.1 µM)	3.12 µg/mL (≈ 9.03 µM)	3.12 µg/mL (≈ 9.03 µM)	3.12 µg/mL (≈ 9.03 µM)
O=[N+]([O-])c1ccc(NCn2nc3oc4c(Cl)cc(Cl)cc4n3c2=S)cc1			3.12 µg/mL (≈ 7.62 µM)	6.25 µg/mL (≈ 15.2 µM)	6.25 µg/mL (≈ 15.2 µM)	3.12 µg/mL (≈ 7.62 µM)
O=C(O)c1cn(C2CC2)c2cc(N3CCNCC3)c(F)cc2c1=O [CIPROFLOXACIN]	3.12 µg/mL (≈ 9.43 µM)	6.25 µg/mL (≈ 18.9 µM)	3.12 µg/mL (≈ 9.43 µM)	3.12 µg/mL (≈ 9.43 µM)	3.12 µg/mL (≈ 9.43 µM)	3.12 µg/mL (≈ 9.43 µM)
